Test results as given in PMC5516028, “Molecular tools for GABAA receptors: High affinity ligands for β1-containing subtypes” (Scientific Reports, 2017).

Experiments:
[1] = tested on: δ subunit containing GABAA receptors; test: Control of δ subunit incorporation with DS2; type: cell-based, rat; settings: 1 µM
Description: For electrophysiological recordings, oocytes were placed on a nylon-grid in a bath of Ca^2+-containing NDE solution medium [96 mM NaCl, 5 mM HEPES-NaOH (pH 7.5), 2 mM KCl, 1 mM MgCl2, 1.8 mM CaCl2]. For current measurements the oocytes were impaled with two microelectrodes (1–3 MΩ resistance) filled with 2 M KCl. […] The EC3–5 was determined at the beginning of each experiment. Drugs were diluted into NDE from DMSO-solutions resulting in a final concentration of 0.1% DMSO perfusing the oocytes. […] Between two applications, oocytes were washed in NDE for up to 15 min to ensure full recovery from desensitization. Maximum currents measured in mRNA injected oocytes were in the microampere range for all subtypes of GABAA receptors. […] In order to monitor receptor composition, diazepam (~200% modulation at 1 µM) was used to investigate the incorporation of the γ2[25] subunit, DS2 (>800% modulation at 1 µM) for the incorporation of the δ subunit and triazolam (>200% modulation at 10 µM) for the γ1 incorporation. […] All recordings were performed at room temperature at a holding potential of […] using a Dagan TEV-200A two-electrode voltage clamp (Dagan Corporation, Mineapolis, MN). Data were digitized, recorded and measured using an Axon Digidata- 1550 low-noise data acquisition system (Axon Instruments, Union City, CA). […]

[2] = tested on: γ2 subunit containing GABAA receptors; test: Control of γ2 subunit incorporation with diazepam; type: cell-based, rat; settings: 1 µM
Description: (§1) For electrophysiological recordings, oocytes were placed on a nylon-grid in a bath of Ca^2+-containing NDE solution medium [96 mM NaCl, 5 mM HEPES-NaOH (pH 7.5), 2 mM KCl, 1 mM MgCl2, 1.8 mM CaCl2]. For current measurements the oocytes were impaled with two microelectrodes (1–3 MΩ resistance) filled with 2 M KCl. […] The EC3–5 was determined at the beginning of each experiment. Drugs were diluted into NDE from DMSO-solutions resulting in a final concentration of 0.1% DMSO perfusing the oocytes. […] Between two applications, oocytes were washed in NDE for up to 15 min to ensure full recovery from desensitization. […] All recordings were performed at room temperature at a holding potential of […] using a Dagan TEV-200A two-electrode voltage clamp (Dagan Corporation, Mineapolis, MN). Data were digitized, recorded and measured using an Axon Digidata- 1550 low-noise data acquisition system (Axon Instruments, Union City, CA).

[3] = target: T1, γ1 subunit containing GABAA receptors (Rattus norvegicus, UniProt P15431+P62813); test: Control of γ1 subunit incorporation with triazolam; type: cell-based; settings: 10 µM
T1 construct: expressed in transfected cells; host or cells: Xenopus laevis oocytes, mRNA injected
T1 sequence (P62813 28-455): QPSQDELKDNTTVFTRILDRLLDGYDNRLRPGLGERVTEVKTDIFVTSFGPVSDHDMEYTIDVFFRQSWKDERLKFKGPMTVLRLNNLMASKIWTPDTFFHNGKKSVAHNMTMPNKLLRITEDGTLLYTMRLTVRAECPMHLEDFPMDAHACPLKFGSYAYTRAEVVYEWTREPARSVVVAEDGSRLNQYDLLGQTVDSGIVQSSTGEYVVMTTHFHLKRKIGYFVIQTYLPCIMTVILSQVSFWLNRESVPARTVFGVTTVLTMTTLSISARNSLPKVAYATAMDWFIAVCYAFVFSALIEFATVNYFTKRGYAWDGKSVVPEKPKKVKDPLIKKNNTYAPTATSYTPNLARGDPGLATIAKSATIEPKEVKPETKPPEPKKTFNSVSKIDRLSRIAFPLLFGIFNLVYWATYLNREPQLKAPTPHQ
T1 sequence (P15431 26-474): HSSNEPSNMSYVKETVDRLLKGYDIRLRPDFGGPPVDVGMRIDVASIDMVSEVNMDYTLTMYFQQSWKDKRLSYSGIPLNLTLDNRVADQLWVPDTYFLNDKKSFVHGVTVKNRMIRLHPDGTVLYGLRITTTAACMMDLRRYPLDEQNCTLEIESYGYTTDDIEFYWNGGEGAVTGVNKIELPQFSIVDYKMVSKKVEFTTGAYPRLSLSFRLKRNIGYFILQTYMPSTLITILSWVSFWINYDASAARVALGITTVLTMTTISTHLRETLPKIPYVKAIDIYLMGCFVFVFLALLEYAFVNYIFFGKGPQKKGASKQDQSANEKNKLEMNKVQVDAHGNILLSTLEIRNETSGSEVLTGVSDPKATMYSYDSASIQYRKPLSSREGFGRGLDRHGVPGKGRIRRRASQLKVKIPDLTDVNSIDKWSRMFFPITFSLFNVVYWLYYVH
T1 sequence (P23574 36-465 partner limits assumed): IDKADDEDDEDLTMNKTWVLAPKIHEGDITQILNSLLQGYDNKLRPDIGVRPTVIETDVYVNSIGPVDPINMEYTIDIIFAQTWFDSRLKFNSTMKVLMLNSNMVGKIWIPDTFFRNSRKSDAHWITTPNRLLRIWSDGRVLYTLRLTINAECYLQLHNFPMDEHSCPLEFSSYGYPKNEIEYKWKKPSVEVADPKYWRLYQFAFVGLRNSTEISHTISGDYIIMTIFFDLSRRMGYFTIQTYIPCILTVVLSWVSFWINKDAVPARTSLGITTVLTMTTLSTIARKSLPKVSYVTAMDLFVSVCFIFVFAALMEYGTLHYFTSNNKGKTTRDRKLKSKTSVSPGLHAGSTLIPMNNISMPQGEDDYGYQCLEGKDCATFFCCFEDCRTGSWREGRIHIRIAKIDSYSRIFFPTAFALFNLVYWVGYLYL
Description: as §1

O=C(Nc1c(-c2cccs2)nc2ccccn12)c1ccc(Cl)cc1 [DS2]
modulation [1]: > 800%

CN1C(=O)CN=C(c2ccccc2)c2cc(Cl)ccc21 [diazepam, Diazepam]
modulation [2]: ~ 200%

Cc1nnc2n1-c1ccc(Cl)cc1C(c1ccccc1Cl)=NC2 [triazolam, Triazolam]
modulation [3]: > 200%
